Measured values published in patent US10344330B2, “Glatiramer acetate response biomarker mRNA potency assay” (Mylan Inc., priority 2013, dated 2019).

Key:
Assay type in all cases: cell-based, mouse
[1] = system: IFN-γ secreted by LN cells; experiment: IFN-γ secretion by GA-stimulated LN cells, MSD ELISA, 21 and 45 hr (Example II)
[2] = system: IL-4 secreted by LN cells; experiment: IL-4 secretion by GA-stimulated LN cells, MSD 9-plex ELISA (Example II); settings: for IL-4 secretion response ratio (treated cell medium to control DCCM1 medium): 21 hr
Description: (§1) Animals at 8 weeks of age were immunized by injection into four footpads using a 1 mL syringe with a 27-G, 1⁄2-inch needle. […] Ten days post-immunization, immunized animals were sacrificed via cervical dislocation. […] The LN cells were isolated by pressing the LN with the plunger end of a sterile syringe. […] Trypan blue exclusion method was used to determine the cell density of viable cells in the suspension. […] Cat. […] LN cells were plated into a 24-well tissue culture plate for drug stimulation. […] Cell debris was removed by centrifugation at ca. 200×g for 10 minutes at 4° C. Cytokines secreted by treated cells were determined on the day of collection by ELISA using mouse TH 1/TH 2 9-Plex Tissue Culture Kit (Meso Scale Discovery; Cat No. […]-2, Lot #: K0032839) which detects Th1 cytokines (IFN-γ, IL-2, IL-12, IL-1β, TNF-α, CXCL1) and Th2 cytokines (IL-4, IL-5 and IL-10). For IFN-γ, culture media also were assayed at 45 hours using mouse IFN-γ Tissue Culture Kit (Meso Scale Discovery; Cat No. […] For the positive control, 0.5 mL of LN cells (5×10^6 cells/well) were treated with 0.5 mL of ConA (5 μg/mL). For the negative control, 0.5 mL of LN cells (5×10^6 cells/well) were treated with 0.5 mL of MBP (20 μg/mL). The LN cells with mock stimulation (enriched DCCM1 medium) were used to monitor the background level of a cytokine. For the cytokine assays, calibration standards or samples were incubated in the MULTI-SPOT or the SINGLE-SPOT plate and each cytokine bound to its corresponding capture antibody. All test samples were run in duplicate. The amount of each cytokine on its distinct spot was quantified using a cytokine-specific detection antibody labeled with MSD SULFO-TAGTM reagent. Electrochemiluminescent signals from immobilized SULFO-TAGTM-labeled complexes on each spot from each well were captured by the MSD SECTOR Imager 6000, which produces a signal directly proportional to the amount of captured cytokine in a test sample. The levels of cytokines in test samples were derived by interpolation from calibration curves with calibration standards of known concentrations using reagents provided with the MSD kits. Kits were used according to the manufacturer's protocols. […] Data are expressed as a response ratio of cytokine concentration in treated cell medium to control DCCM1 medium.

TNF-α mRNA in LN cells = experiment: TNF-α mRNA by real-time PCR in LN cells of GA-immunized CD-1, BALB/cByJ, SJL/J mice (Example III); settings: 6 hours
Description: On Day 0, mice were immunized with 250 μg GA (GMA, Mylan Pharmaceuticals, Inc.) and CFA. The GA solution (20 mg/mL) was diluted with Dulbecco's Phosphate-Buffered Saline to 5 mg/mL. The dosing formulation consisted of equal volumes of the diluted GA solution (5 mg/mL) and CFA solution, mixed until well-emulsified. Animals were weighed and allocated to groups. Animals were dosed by injection into four footpads. The injection volume per animal was 0.1 mL (about 10 μL into each front footpad, and 40 μL into each hind footpad).
Immunized animals were euthanized by cervical dislocation on Day 10 post-immunization. Lymph node cells were isolated from animals and treated with Myelin Basic Protein (MBP, a negative control), Concanavalin A (ConA, a positive control) or GA as shown in Table 16. Lymph nodes in the axillary and popliteal regions were removed aseptically in a purifier clean bench. […] The LN were then washed 3 times with −5 mL of RPMI medium, and isolated by pressing the LN with a syringe plunger. […] The cell suspension was centrifuged at about 200×g for 10 minutes at about 4° C. and re-suspended in ice cold enriched DCCM-1 medium. Cells were seeded in 96-well tissue culture plates.
LN cells isolated from GA-immunized animals were stimulated with GA (GMA, Mylan Pharmaceuticals, Inc.) at concentrations as indicated in Tables 16 and 17. A positive control was prepared by treating LN cells with 2.5 μg/mL concavalin A (ConA, a non-specific T cell stimulant). Myelin basic protein (MBP, 10 μg/mL) and enriched DCCM-1 medium served as negative controls. The cells from all groups each were stimulated with the same GA lot. Each reaction was set up in triplicate.
After incubation at about 37° C. in a humidified CO2 incubator for 6 hours, the cells were lysed for total RNA isolation. Total RNA was isolated from treated LN cells using SV 96 Total RNA Isolation System according to the manufacturer's protocol (Promega, Cat. #Z3500). Cells were washed once with Phosphate Buffered Saline (PBS) and lysed in RNA lysis buffer. The lysate was transferred to wells of the SV 96 binding plate. Samples were washed with RNA wash solution and treated with DNase. Total RNA was eluted with nuclease-free water from the binding plate.
After the reverse transcriptase reaction was completed, cDNA samples were used directly for real-time PCR to measure the response biomarker mRNA levels produced by the stimulated cells. […] All probes for target genes contained FAM dye, and probes for the internal control contained VIC®/MGB dye. Samples will be prepared and run in 96-well plates using a Real-Time PCR system (7500, Life Technologies). This system allows direct detection of PCR-product formation by measuring the increase in fluorescent emission continuously during the PCR reaction. A relative quantitation method was used to analyze changes in mouse IL-2, IL-4, IL-5, IL-10, IL-13, IFN-γ and TNF-α expression in GA-treated samples relative to the untreated control (enriched DCCM-1 treated) samples. The Real-Time PCR program was:
The levels of mouse cytokine amplicons (IL-2, IL-4, IL-5, IL-10, IL-13, mIFN-γ and TNF-α) were normalized to internal probe levels (GAPDH) from the same samples. The following equations were used to calculate the relative increase in response to GA stimulation compared to the control sample: ΔCT=CT_target−CT_reference ΔΔCT=−ΔCT_Treated−CT_VC

[3] = system: TNF-α secreted by LN cells; experiment: TNF-α secretion by GA-stimulated LN cells, MSD 9-plex ELISA (Example II); settings: for TNF-α secretion response ratio (treated cell medium to control DCCM1 medium): 21 hr
Description: as §1

[4] = BALB/cByJ, immunized GA Intraplantar
[5] = BALB/cByJ, immunized GA Lower Limb
[6] = BALB/cByJ, immunized Mannitol Intraplantar
[7] = C57BL10J, immunized GA Intraplantar
[8] = C57BL10J, immunized GA Lower Limb
[9] = C57BL10J, immunized Mannitol Intraplantar
[10] = CD-1, immunized GA Intraplantar
[11] = CD-1, immunized Mannitol Intraplantar

With “Concanavalin A [ConA, reference compound]” the “IFN-γ secretion response ratio (treated cell medium to control DCCM1 medium)” value (“IFN-γ secretion response ratio” for short) ([1]; BALB/cByJ, immunized GA Intraplantar, 21 hr) was 9.70, the “IFN-γ secretion response ratio” value ([1]; BALB/cByJ, immunized GA Intraplantar, 45 hr) was 11.40 and the “IFN-γ secretion response ratio” value ([1]; BALB/cByJ, immunized GA Lower Limb, 21 hr) was 6.24. For the same substance, the “IFN-γ secretion response ratio” value ([1]; BALB/cByJ, immunized GA Lower Limb, 45 hr) was 7.33, the “IFN-γ secretion response ratio” value ([1]; BALB/cByJ, immunized Mannitol Intraplantar, 21 hr) was 4.40 and the “IFN-γ secretion response ratio” value ([1]; BALB/cByJ, immunized Mannitol Intraplantar, 45 hr) was 3.48. The “IFN-γ secretion response ratio” value ([1]; C57BL10J, immunized GA Intraplantar, 21 hr) was 11.55, the “IFN-γ secretion response ratio” value ([1]; C57BL10J, immunized GA Intraplantar, 45 hr) was 53.10 and the “IFN-γ secretion response ratio” value ([1]; C57BL10J, immunized GA Lower Limb, 21 hr) was 5.07. The “IFN-γ secretion response ratio” value ([1]; C57BL10J, immunized GA Lower Limb, 45 hr) was 5.15, the “IFN-γ secretion response ratio” value ([1]; C57BL10J, immunized Mannitol Intraplantar, 21 hr) was 4.05 and the “IFN-γ secretion response ratio” value ([1]; C57BL10J, immunized Mannitol Intraplantar, 45 hr) was 5.90. For the same substance, the “IFN-γ secretion response ratio” value ([1]; CD-1, immunized GA Intraplantar, 21 hr) was 10.14, the “IFN-γ secretion response ratio” value ([1]; CD-1, immunized GA Intraplantar, 45 hr) was 5.47 and the “IFN-γ secretion response ratio” value ([1]; CD-1, immunized GA Lower Limb, 21 hr) was 1.90. The “IFN-γ secretion response ratio” value ([1]; CD-1, immunized GA Lower Limb, 45 hr) was 1.89, the “IFN-γ secretion response ratio” value ([1]; CD-1, immunized Mannitol Intraplantar, 21 hr) was 9.35 and the “IFN-γ secretion response ratio” value ([1]; CD-1, immunized Mannitol Intraplantar, 45 hr) was 9.68. The “IL-4 secretion response ratio (treated cell medium to control DCCM1 medium)” value (from here on “IL-4 secretion response ratio”) [2, 4] was 46.47, the “IL-4 secretion response ratio” value [2, 5] was 75.33 and the “IL-4 secretion response ratio” value [2, 6] was 24.71. For the same substance, the “IL-4 secretion response ratio” value [2, 7] was 3.26, the “IL-4 secretion response ratio” value [2, 8] was 4.85 and the “IL-4 secretion response ratio” value [2, 9] was 3.14. For the same substance, the “IL-4 secretion response ratio” value [2, 10] was 9.86, the “IL-4 secretion response ratio” value ([2]; CD-1, immunized GA Lower Limb) was 4.91 and the “IL-4 secretion response ratio” value [2, 11] was 3.36. For the same substance, the “TNF-α mRNA Expression” value (TNF-α mRNA in LN cells; Group 1C: CD-1, GA-immunized, stimulation 2.5 μg/mL) was 0.6 fold change vs control, the “TNF-α mRNA Expression” value (TNF-α mRNA in LN cells; Group 2C: BALB/cByJ, GA-immunized, stimulation 2.5 μg/mL) was 0.8 fold change vs control and the “TNF-α mRNA Expression” value (TNF-α mRNA in LN cells; Group 3C: SJL/J, GA-immunized, stimulation 2.5 μg/mL) was 0.7 fold change vs control. The “TNF-α secretion response ratio (treated cell medium to control DCCM1 medium)” value (“TNF-α secretion response ratio” below) [3, 4] was 27.69, the “TNF-α secretion response ratio” value [3, 5] was 10.87 and the “TNF-α secretion response ratio” value [3, 6] was 11.61. The “TNF-α secretion response ratio” value [3, 7] was 2.53, the “TNF-α secretion response ratio” value [3, 8] was 2.02 and the “TNF-α secretion response ratio” value [3, 9] was 2.10. The “TNF-α secretion response ratio” value [3, 10] was 17.59, the “TNF-α secretion response ratio” value ([3]; CD-1, immunized GA Lower Limb) was 9.79 and the “TNF-α secretion response ratio” value [3, 11] was 23.88.
In the case of “L-glutamic acid polymer with L-alanine, L-lysine and L-tyrosine, acetate (salt) [GA]”, the “IFN-γ secretion, dose response to GA (in words)” value ([1]; LN cells from each of the three mouse strains) was “dose-dependent manner”, the “IL-4 secretion, dose response to GA (in words)” value ([2]; BALB/cByJ cells) was “dose-dependent manner” and the “TNF-α mRNA Expression” value (TNF-α mRNA in LN cells; Group 1C: CD-1, GA-immunized, stimulation 0.3 μg/mL) was 1.0 fold change vs control. For the same substance, the “TNF-α mRNA Expression” value (TNF-α mRNA in LN cells; Group 1C: CD-1, GA-immunized, stimulation 1 μg/mL) was 1.1 fold change vs control, the “TNF-α mRNA Expression” value (TNF-α mRNA in LN cells; Group 1C: CD-1, GA-immunized, stimulation 3 μg/mL) was 1.4 fold change vs control and the “TNF-α mRNA Expression” value (TNF-α mRNA in LN cells; Group 1C: CD-1, GA-immunized, stimulation 10 μg/mL) was 1.1 fold change vs control. The “TNF-α mRNA Expression” value (TNF-α mRNA in LN cells; Group 2C: BALB/cByJ, GA-immunized, stimulation 0.3 μg/mL) was 0.1 fold change vs control, the “TNF-α mRNA Expression” value (TNF-α mRNA in LN cells; Group 2C: BALB/cByJ, GA-immunized, stimulation 1 μg/mL) was 1.0 fold change vs control and the “TNF-α mRNA Expression” value (TNF-α mRNA in LN cells; Group 2C: BALB/cByJ, GA-immunized, stimulation 3 μg/mL) was 0.8 fold change vs control. For the same substance, the “TNF-α mRNA Expression” value (TNF-α mRNA in LN cells; Group 2C: BALB/cByJ, GA-immunized, stimulation 10 μg/mL) was 0.5 fold change vs control, the “TNF-α mRNA Expression” value (TNF-α mRNA in LN cells; Group 3C: SJL/J, GA-immunized, stimulation 0.3 μg/mL) was 0.8 fold change vs control and the “TNF-α mRNA Expression” value (TNF-α mRNA in LN cells; Group 3C: SJL/J, GA-immunized, stimulation 1 μg/mL) was 0.9 fold change vs control. For the same substance, the “TNF-α mRNA Expression” value (TNF-α mRNA in LN cells; Group 3C: SJL/J, GA-immunized, stimulation 3 μg/mL) was 0.9 fold change vs control, the “TNF-α mRNA Expression” value (TNF-α mRNA in LN cells; Group 3C: SJL/J, GA-immunized, stimulation 10 μg/mL) was 0.8 fold change vs control and the “TNF-α secretion, dose response to GA (in words)” value ([3]; cells from any of the three mouse strains) was “No dose response”.
